# Results: US20240102991A1, “Synthetic Fluorescent Protein Biosensors and Use Thereof in Drug Screening Methods” (The Regents of the University of Colorado, a body corporate, priority 2017, published 2024)
# Test system: biosensor expressing cells (HEK293T)
# Type: cell-based, human
substance,measurement,value
Cholera Toxin,biosensors that respond in some way to the single drug treatment,> 80%
